# Measurements: patent US20060258755A1, “Preparation of sevoflurane with negligible water content” (priority 2005, published 2006)
# Key:
# Type in all cases: physicochemical
# [1] = Water saturation limit of sevoflurane; conditions: second sample of Example 4 (28 g)
# Method: Currently available processes for the preparation of sevoflurane generally give a product containing dissolved water up to 0.12 to 0.14 wt %, or 1200 to 1400 ppm, the approximate water saturation limit of sevoflurane. […] This sample was sealed in September 2000 in a new Type III glass bottle as previously described and stored at 40° C. for four weeks.
# [2] = Storage stability of sevoflurane in Type III glass bottle (gas chromatography, Karl Fischer)
# Method: In one experiment initiated in August 2000, sevoflurane (Abbott Laboratories, Lot #61-339-DK, Expiration Date Aug. 1, 2001) was dried to 0 ppm water content using Type 3A molecular sieve. Drying was performed by mixing the sevoflurane with molecular sieves and then allowing these materials to stand together for several hours. The water content was determined by Karl Fischer analysis. A sample of the dried sevoflurane was placed in a new amber Type III glass bottle, which had been dried at 100° C. for 2 hours. The bottle was sealed with a black phenolic/urea resin cap and a polyseal liner of polyethylene resin and shrink-wrapped or wrapped with Teflon® tape and shrink-wrapped. The sample was then held at room temperature (25-27° C.) and at ambient relative humidity. […] One undried lot of sevoflurane from Abbott Laboratories (Lot #0 335 70 K, Expiration Date Apr. 1, 1997, stored in a Type III bottle) was analyzed in May and October 2000. This sevoflurane was 97 ppm H2O and 99.9916% sevoflurane by gas chromatography.
# [3] = Stability trial of sevoflurane dried over Type 3A molecular sieve, packaged in glass bottles or epoxy-lined drums; conditions: for decomposition / % sevoflurane by gas chromatography: dried to 0 ppm water, 30 days at 40° C. and 75% relative humidity; for % sevoflurane by gas chromatography: initial 99.99%
# Method: Sevoflurane (99.99%, produced January 2005) was dried over Type 3A molecular sieve using a continuous flow bed apparatus to a water-composition of 0.0 wt % (or 0 ppm) as measured by Karl Fischer. 100 ml of sevoflurane was packaged into a Type III amber glass bottle and sealed for a 30-day stability trial at 40° C. and 75% relative humidity. At the end of this time, the sevoflurane was 99.99% as determined by gas chromatography.
# Sevoflurane (99.99%, produced January 2005) was dried over Type 3A molecular sieve using a continuous flow bed apparatus to a water composition of 0.0 wt % (or 0 ppm) as measured by Karl Fischer. 250 ml of sevoflurane was packaged into a Type III amber glass bottle and sealed for a 30-day stability trial at 40° C. and 75% relative humidity. At the end of this time, the sevoflurane was 99.99% as determined by gas chromatography.
# Sevoflurane (99.99%, produced January 2005) was dried over Type 3A molecular sieve using a continuous flow bed apparatus to a water composition of 0.0 wt % (or 0 ppm) as measured by Karl Fischer. 28.1 kg of sevoflurane was packaged in a five-gallon epoxy-lined drum and sealed for a 30-day stability trial at 40° C. and 75% relative humidity. At the end of this time, the % sevoflurane was 99.99% as determined by gas chromatography.
# Purified Sevoflurane was dried over Type 3A molecular sieve using a continuous flow bed apparatus to negligible or near-negligible water compositions as measured by Karl Fischer. The dried material was packaged into 100 mL or 250 mL Type III amber glass bottles or into 5 gal epoxy-lined drums and subsequently stored as part of a stability trial under controlled or ambient conditions.
# The sevoflurane used in examples 8-11 was produced by the method described in pending U.S. patent application Ser. No. 11/281,293, filed Nov. 17, 2005, the disclosure of which is incorporated herein by reference.
# [4] = Storage stability of sevoflurane stored with Type 3A molecular sieve in Type III glass
# Description: Another sample of sevoflurane (40 g) was stored with 2 g of Type 3A molecular sieve (an alumino silicate that contains Al2O3, identified as a Lewis acid in the '176 patent) in July 2000. This sample was in a new Type III glass container for six months at ambient temperatures.
# Starting in July 2000, 40 g of sevoflurane (Abbott Laboratories Lot # 35-621 -DK-03) was stored in the presence of 2 g of Type 3A molecular sieve for 20 months in a dried, new Type III amber glass bottle at room temperature. The initial water content was 218 ppm and was essentially zero after 16 hours of contact with the molecular sieve (as determined by Karl Fischer, a method known to those skilled in the art with a detection limit of about 1 ppm or less).
# Starting in July 2000, a sample of sevoflurane (from the lot described in Example 1) was held at room temperature (25-27° C.) over Type 3A molecular sieve for two-and-a-half months in a dried, new Type III amber glass bottle.
# [5] = Storage stability of sevoflurane in the presence of iron oxide (Fe2O3, a Lewis acid)
# Method: A sample of sevoflurane containing 30 ppm of water and 0.05 g Fe2O3 (iron oxide) was placed in a new Type III amber glass bottle in July 2000 and sealed as previously described. […] This sample was sealed in September 2000 in a new Type III glass bottle as previously described and stored at 40° C. for four weeks.
# [6] = undried Abbott Lot #0 335 70 K, 97 ppm H2O, Type III bottle, ambient temperature for about five years
# [7] = 5 gal epoxy-lined drum, Mfg. April 2005, initial water 6 ppm, 60 days, 40 C./75% RH
# [8] = 5 gal epoxy-lined drum, Mfg. April 2005, initial water 10 ppm, 9 months, Ambient
# [9] = 5 gal epoxy-lined drum, Mfg. February 2005, initial water 0 ppm, 12 months, 40 C./75% RH
# [10] = 5 gal epoxy-lined drum, Mfg. February 2005, initial water 0 ppm, 12 months, Ambient
# [11] = 5 gal epoxy-lined drum, Mfg. January 2005, initial water 0 ppm, 6 months, 40 C./75% RH
# [12] = 5 gal epoxy-lined drum, Mfg. January 2005, initial water 0 ppm, 90 days, Ambient
# [13] = 100 mL Type III amber glass bottle, Mfg. February 2005, initial water 0 ppm, 9 months, 25 C./60% RH
# [14] = 100 mL Type III amber glass bottle, Mfg. February 2005, initial water 0 ppm, 60 days, 40 C./75% RH
# [15] = 250 mL Type III amber glass bottle, Mfg. April 2005, initial water 5 ppm, 6 months, 25 C./60% RH
# [16] = 250 mL Type III amber glass bottle, Mfg. April 2005, initial water 5 ppm, 90 days, 40 C./75% RH
# [17] = 250 mL Type III amber glass bottle, Mfg. February 2005, initial water 0 ppm, 9 months, 25 C./60% RH
# [18] = 250 mL Type III amber glass bottle, Mfg. February 2005, initial water 0 ppm, 60 days, 40 C./75% RH
# [19] = 250 mL Type III amber glass bottle, Mfg. January 2005, initial water 0 ppm, 12 months, 25 C./60% RH
# [20] = 28.1 kg in five-gallon epoxy-lined drum
# [21] = 100 ml in Type III amber glass bottle
# [22] = 250 ml in Type III amber glass bottle
# [23] = 40 g with 2 g Type 3A molecular sieve, new Type III glass container, six months at ambient temperatures
# [24] = lot of Example 1 over Type 3A molecular sieve, dried, new Type III amber glass bottle, room temperature (25-27° C.), two-and-a-half months
# [25] = 28 g saturated with water (1235 ppm), 0.07 g Fe2O3, new Type III glass bottle, 40° C. for four weeks
# [26] = 30 ppm water, 0.05 g Fe2O3, new Type III amber glass bottle, four weeks at 40° C.
compound,measurement,setting,value
"FCOC(C(F)(F)F)C(F)(F)F [sevoflurane, 1,1,1,3,3,3-hexafluoroisopropyl fluoromethyl ether]",water content of sevoflurane saturated with water,[1],1235 ppm
same,% sevoflurane by gas chromatography,"[2]; Abbott Lot #61-339-DK dried to 0 ppm water with Type 3A molecular sieve, new amber Type III glass bottle, room temperature (25-27° C.), ambient relative humidity, four weeks",99.998%
same,water (Karl Fischer analysis) at end of stability run,"[2]; Abbott Lot #61-339-DK dried to 0 ppm water, new amber Type III glass bottle, room temperature (25-27° C.), ambient relative humidity, four weeks",68 ppm
same,decomposition,"[2]; Abbott Lot #61-339-DK dried to 0 ppm water, new amber Type III glass bottle, room temperature (25-27° C.), four weeks",no decomposition
same,% sevoflurane by gas chromatography,[2]; [6],99.9916%
same,decomposition,[2]; [6],without decomposition
same,Final Comp.,[3]; [7],99.998%
same,Result (decomposition),[3]; [7],No
same,Final Comp.,[3]; [8],99.998%
same,Result (decomposition),[3]; [8],No
same,Final Comp.,[3]; [9],99.98%
same,Result (decomposition),[3]; [9],No
same,Final Comp.,[3]; [10],99.98%
same,Result (decomposition),[3]; [10],No
same,Final Comp.,[3]; [11],99.98%
same,Result (decomposition),[3]; [11],No
same,Final Comp.,[3]; [12],99.99%
same,Result (decomposition),[3]; [12],No
same,Final Comp.,[3]; [13],99.98%
same,Result (decomposition),[3]; [13],No
same,Final Comp.,[3]; [14],99.99%
same,Result (decomposition),[3]; [14],No
same,Final Comp.,[3]; [15],99.997%
same,Result (decomposition),[3]; [15],No
same,Final Comp.,[3]; [16],99.997%
same,Result (decomposition),[3]; [16],No
same,Final Comp.,[3]; [17],99.98%
same,Result (decomposition),[3]; [17],No
same,Final Comp.,[3]; [18],99.98%
same,Result (decomposition),[3]; [18],No
same,Final Comp.,[3]; [19],99.99%
same,Result (decomposition),[3]; [19],No
same,decomposition,[3]; [20],no decomposition
same,% sevoflurane by gas chromatography,[3]; [20],99.99%
same,decomposition,[3]; [21],no decomposition
same,% sevoflurane by gas chromatography,[3]; [21],99.99%
same,decomposition,[3]; [22],no decomposition
same,% sevoflurane by gas chromatography,[3]; [22],99.99%
same,decomposition,"[4]; 40 g Abbott Lot # 35-621 -DK-03 with 2 g Type 3A molecular sieve, dried, new Type III amber glass bottle, room temperature, 20 months",no evidence of any decomposition
same,% sevoflurane by gas chromatography,"[4]; 40 g Abbott Lot # 35-621 -DK-03 with 2 g Type 3A molecular sieve, dried, new Type III amber glass bottle, room temperature, 20 months, initial water 218 ppm, essentially zero after 16 hours",99.997%
same,% sevoflurane by gas chromatography,[4]; [23],greater than 99.99%
same,decomposition,[4]; [23],No decomposition
same,% sevoflurane by gas chromatography,[4]; [24],greater than 99.99%
same,decomposition,[4]; [24],no decomposition
same,decomposition,[5]; [25],no decomposition
same,purity by gas chromatography,[5]; [25],99.97%
same,% (CF3)2CHOCH2OCH(CF3)2 decomposition product by gas chromatographic analyses,[5]; [26],6.33%
same,% (CF3)2CHOH decomposition product by gas chromatographic analyses,[5]; [26],0.49%
same,% sevoflurane by gas chromatographic analyses,[5]; [26],90.7%
